≈ marks a conversion by molar mass, not a printed value. Like-named read-outs stand apart in the source and are kept apart here.
What was measured:
Test in all cases: in vitro antibacterial activity, standard agar dilution method
Format in all cases: cell-based
[1] = test system: Enterococcus faecalis NR 2943; conditions: NR2943, aerobic, read-out: minimum inhibitory concentration (MIC)
[2] = test system: Enterobacter cloacae NR 2946; conditions: NR2946, aerobic, read-out: minimum inhibitory concentration (MIC)
[3] = test system: Pseudomonas stutzeri IFO 12695; conditions: Stutzerimonas stutzeri, IFO12695, aerobic, read-out: minimum inhibitory concentration (MIC)
[4] = test system: Enterobacter aerogenes NR 2945; conditions: Klebsiella aerogenes, NR2945, aerobic, read-out: minimum inhibitory concentration (MIC)
[5] = test system: Bordetella bronchiseptica ATCC 4617; conditions: ATCC4617, aerobic, read-out: minimum inhibitory concentration (MIC)
[6] = test system: Pseudomonas aeruginosa A3; conditions: aerobic, read-out: minimum inhibitory concentration (MIC)
[7] = test system: Staphylococcus epidermidis IFO 12993; conditions: IFO12993, aerobic, read-out: minimum inhibitory concentration (MIC)
[8] = test system: Alcaligenes faecalis IFO 13111; conditions: IFO13111, aerobic, read-out: minimum inhibitory concentration (MIC)
[9] = test system: Proteus vulgaris OX19 ATCC 6898; conditions: ATCC6898, aerobic, read-out: minimum inhibitory concentration (MIC)
[10] = test system: Escherichia coli NR 2630
[11] = test system: Pseudomonas aeruginosa NR 2950; conditions: NR2950, aerobic, read-out: minimum inhibitory concentration (MIC)
[12] = test system: Staphylococcus aureus FDA 209P JC-1; conditions: FDA209P; Staphylococcus aureus FDA 209P JC-1; aerobic; agar dilution; read-out: minimum inhibitory concentration (MIC)
[13] = test system: Staphylococcus aureus NR 2855; conditions: NR2855; Staphylococcus aureus NR 2855; aerobic; agar dilution; read-out: minimum inhibitory concentration (MIC)
[14] = test system: Proteus rettgeri ATCC 14505; conditions: Providencia rettgeri, ATCC14505, aerobic, read-out: minimum inhibitory concentration (MIC)
[15] = test system: Staphylococcus epidermidis NR 2942; conditions: NR2942, aerobic, read-out: minimum inhibitory concentration (MIC)
[16] = test system: Serratia marcescens IFO 12648; conditions: IFO12648, aerobic, read-out: minimum inhibitory concentration (MIC)
[17] = test system: Citrobacter freundii IFO 12681; conditions: IFO12681, aerobic, read-out: minimum inhibitory concentration (MIC)
[18] = test system: Staphylococcus aureus Smith; conditions: read-out: minimum inhibitory concentration (MIC)
[19] = test system: Escherichia coli NIHJ JC-2; conditions: NIHJJC2, aerobic, read-out: minimum inhibitory concentration (MIC)
[20] = test system: Bacillus subtilis PCI 219; conditions: PCI219, aerobic, read-out: minimum inhibitory concentration (MIC)
[21] = test system: Salmonella typhimurium IFO 12529; conditions: Salmonella enterica, aerobic, read-out: minimum inhibitory concentration (MIC)
[22] = test system: Klebsiella pneumoniae FDA PCI 602; conditions: FDAPCI602, aerobic, read-out: minimum inhibitory concentration (MIC)
[23] = NR2630, Escherichia coli NR 2630, aerobic, agar dilution, read-out: minimum inhibitory concentration (MIC)
[24] = Staphylococcus aureus Smith, aerobic, agar dilution

Compound	MIC [1] [µg/mL]	MIC [2] [µg/mL]	MIC [3] [µg/mL]	MIC [4] [µg/mL]	MIC [5] [µg/mL]	MIC [6] [µg/mL]	MIC [7] [µg/mL]	MIC [8] [µg/mL]	MIC [9] [µg/mL]	MIC [11] [µg/mL]	MIC [12] [µg/mL]	MIC [13] [µg/mL]	MIC [14] [µg/mL]	MIC [15] [µg/mL]	MIC [16] [µg/mL]	MIC [17] [µg/mL]	MIC [19] [µg/mL]	MIC [20] [µg/mL]	MIC [21] [µg/mL]	MIC [22] [µg/mL]	other results
CN1COc2c(N3CCC(N)C3)c(F)cc3c(=O)c(C(=O)OCOC(=O)C(C)(C)C)cn1c23 (stereo not shown) [Example 63, pivaloyloxymethyl 10-(3-amino-1-pyrrolidinyl)-9-fluoro-3-methyl-7-oxo-2,3-dihydro-7H-pyrido[3,2,1-ij]-1,3,4-benzoxadiazine-6-carboxylate]	25 (≈ 54.1 µM)	1.56 (≈ 3.37 µM)	0.39 (≈ 0.843 µM)	0.39 (≈ 0.843 µM)	50 (≈ 108 µM)	3.13 (≈ 6.77 µM)	1.56 (≈ 3.37 µM)	100 (≈ 216 µM)	0.39 (≈ 0.843 µM)	25 (≈ 54.1 µM)	0.78 (≈ 1.69 µM)	3.13 (≈ 6.77 µM)	6.25 (≈ 13.5 µM)	0.78 (≈ 1.69 µM)	3.13 (≈ 6.77 µM)	0.78 (≈ 1.69 µM)	1.56 (≈ 3.37 µM)	0.78 (≈ 1.69 µM)	0.78 (≈ 1.69 µM)	6.25 (≈ 13.5 µM)	MIC [10, 23]: 0.78 µg/mL (≈ 1.69 µM); MIC ([18]; Staphylococcus aureus): 0.39 µg/mL (≈ 0.843 µM)
COC1CCN(c2c(F)cc3c(=O)c(C(=O)O)cn4c3c2OCN4C)C1 (stereo not shown) [Example 37, 9-fluoro-10-(3-methoxy-1-pyrrolidinyl)-3-methyl-7-oxo-2,3-dihydro-7H-pyrido[3,2,1-ij]-1,3,4-benzoxadiazine-6-carboxylic acid]	3.13 (≈ 8.61 µM)	0.2 (≈ 0.55 µM)	0.013 (≈ 0.0358 µM)	0.1 (≈ 0.275 µM)	1.56 (≈ 4.29 µM)	6.25 (≈ 17.2 µM)	0.025 (≈ 0.0688 µM)	12.5 (≈ 34.4 µM)	≤ 0.0008	25 (≈ 68.8 µM)	0.0016 (≈ 0.0044 µM)	≤ 0.0008	6.25 (≈ 17.2 µM)	≤ 0.0008	0.78 (≈ 2.15 µM)	0.78 (≈ 2.15 µM)	0.1 (≈ 0.275 µM)	≤ 0.0008	0.2 (≈ 0.55 µM)	3.13 (≈ 8.61 µM)	MIC [10, 23]: ≤ 0.0008 µg/mL; MIC [18, 24]: ≤ 0.0008 µg/mL
CC1Oc2c(N3CCNCC3)c(F)cc3c(=O)c(C(=O)O)cn(c23)N1C (stereo not shown) [Example 25]	100 (≈ 276 µM)	0.78 (≈ 2.15 µM)	0.39 (≈ 1.08 µM)	0.39 (≈ 1.08 µM)	100 (≈ 276 µM)	3.13 (≈ 8.64 µM)	6.25 (≈ 17.2 µM)	50 (≈ 138 µM)	0.1 (≈ 0.276 µM)	50 (≈ 138 µM)	6.25 (≈ 17.2 µM)	12.5 (≈ 34.5 µM)	25 (≈ 69 µM)	6.25 (≈ 17.2 µM)	3.13 (≈ 8.64 µM)	0.78 (≈ 2.15 µM)	0.78 (≈ 2.15 µM)	0.78 (≈ 2.15 µM)	0.2 (≈ 0.552 µM)	3.13 (≈ 8.64 µM)	MIC ([10]; Escherichia coli, NR2630, read-out: minimum inhibitory concentration (MIC)): 0.39 µg/mL (≈ 1.08 µM); MIC [18, 24]: 1.56 µg/mL (≈ 4.31 µM)
CC(=O)CCN1CCN(c2c(F)cc3c(=O)c(C(=O)O)cn4c3c2OCN4C)CC1 [Example 51, 9-fluoro-3-methyl-7-oxo-10-[4-(3-oxo-n-butyl)-1-piperazinyl]-2,3-dihydro-7H-pyrido[3,2,1-ij]-1,3,4-benzoxadiazine-6-carboxylic acid]	12.5 (≈ 29.9 µM)	0.05 (≈ 0.119 µM)	0.05 (≈ 0.119 µM)	0.025 (≈ 0.0597 µM)	1.56 (≈ 3.73 µM)	0.1 (≈ 0.239 µM)	0.78 (≈ 1.86 µM)	3.13 (≈ 7.48 µM)	0.025 (≈ 0.0597 µM)	1.56 (≈ 3.73 µM)	0.2 (≈ 0.478 µM)	1.56 (≈ 3.73 µM)	0.2 (≈ 0.478 µM)	0.78 (≈ 1.86 µM)	0.1 (≈ 0.239 µM)	0.025 (≈ 0.0597 µM)	0.1 (≈ 0.239 µM)	0.1 (≈ 0.239 µM)	0.025 (≈ 0.0597 µM)	0.2 (≈ 0.478 µM)	MIC [10, 23]: 0.025 µg/mL (≈ 0.0597 µM); MIC ([18]; Staphylococcus aureus): 0.39 µg/mL (≈ 0.932 µM)

From US4864023A, “Pyrido(3,2,1-IJ)-1,3,4-benzoxadiazine derivatives” (priority 1988, dated 1989)
